Results: PMC9601927 (Foods, 2022)

Columns and labels:
GLUT2 = test: siRNA-mediated knockdown of GLUT2 in Caco-2 cells (RT-PCR, Western blot); format: cell-based; conditions: 72 h post-transfection
Experimental: (§1) To examine the effect of sGLT1 and GLUT2 on ANC transmembrane transport in more detail, the Caco-2 cells were transfected with siRNA targeted to sGLT1 and GLUT2 (sGLT1 siRNA-1, sGLT1 siRNA-2, sGLT1 siRNA-3, GLUT2 siRNA-1, GLUT2 siRNA-2, and GLUT2 siRNA-3) to knockdown their expression on day 18 after differentiation. The specific experimental operation was carried out according to the literature. NC siRNA was used as a negative control. The siRNA oligos and all transfection reagents were provided by Hippobio (Huzhou, China). Western blotting and real-time PCR (RT-PCR) analyses were performed to check the sGLT1 and GLUT2 expression levels after 72 h post-transfection.
(§2) According to the manufacturer’s instructions, the MiniBEST Universal RNA Extraction Kit was used to isolate the total RNA from Caco-2 cells. Table 2 lists the three specific primers. GAPDH served as an internal control. […] The 2^−ΔΔCt method was adopted to calculate the relative quantification of the target gene.
(§3) Firstly, the cells were washed twice with 1 mL of cold PBS and then lysed in 100 μL of ice-cold RIPA lysis buffer. […] Finally, the expressions of sGLT1 and GLUT2 were detected using a Western blot assay.

sGLT1 = test: siRNA-mediated knockdown of sGLT1 in Caco-2 cells (RT-PCR, Western blot); format: cell-based; conditions: 72 h post-transfection
Experimental: as §1, §2, §3

Substance: GLUT2 siRNA-2: siRNA targeted to GLUT2: CGGGCATTCTTATTAGTCATT TGACTAATAAGAATGCCCGTT (CGGGCATTCTTATTAGTCATTTGACTAATAAGAATGCCCGTT; chemistry not given here)
- reduction of GLUT2 mRNA levels (RT-PCR) (GLUT2): 75%
- silencing of GLUT2 (Western blot) after siRNA transfection (GLUT2): most effective segment

Substance: sGLT1 siRNA-3: siRNA targeted to sGLT1: GGAGCGTATTGACCTGGATTT ATCCAGGTCAATACGCTCCTT (GGAGCGTATTGACCTGGATTTATCCAGGTCAATACGCTCCTT; chemistry not given here)
- expression of sGLT1 (Western blot) after siRNA transfection (sGLT1): significantly reduced
- reduction of sGLT1 mRNA levels (RT-PCR) (sGLT1): 85%
